Measured values as given in patent US20090298708A1, “2'-DEOXY-2'-FLUORO-BETA-D-ARABINONUCLEOSIDE 5'-TRIPHOSPHATES AND THEIR USE IN ENZYMATIC NUCLEIC ACID SYNTHESIS” (priority 2006, published 2009).

Columns and labels:
[1] = tested on: Phusion DNA polymerase (Ph); test: Dropout assay, fidelity of incorporation by Ph; format: biochemical; conditions: 30 min reaction time, 55° C., templates PF21, PF41
Description: FIG. 13 illustrates the fidelity of 2′F-araNTP incorporation on pyrimidine rich DNA template PF21 by Ph DNA polymerase. […] Template PF41 and primer PF20 are shown; PF39 is a 27-nt DNA control.
FIG. 14 illustrates the fidelity of 2′F-araNTP incorporation on purine rich DNA template PF41 by Ph DNA polymerase. The base sequence of the primer, DNA template and resulting terminated products in different dropout conditions (condition 1-5) is shown. […] Lane 1: dNTPs; 2: drop out dCTP (i.e. dATP, dGTP and dTTP, shorten as AGT, same coding for lanes 3-5), lane 6: 2′F-araNTPs; 7: drop out 2′F-araCTP (i.e. 2′F-araATP, 2′F-araGTP, 2′F-araTTP, shorten as AGT; same coding for lanes 8-10). The template PF41 and the primer PF20 are shown; PF39 is a 27mer DNA control.
For example, the 2′F-araNTP of interest is removed from the pool, and the ensuing synthesis on DNA template (e.g. PF21, PF23, PF41, PF43) assessed in comparison with a control reaction containing all four 2′F-araNTPs. For comparison, dropout experiments containing dNTPs are run in parallel. […] Apparent fidelity was calculated according to the equation:
(§1) 1−[(% full-length−2′F-araNTP)/(% full-length+2′F-araNTP)]
In one of these assays, 2′F-araATP was removed from the pool, and the ensuing synthesis assessed in comparison with a control reaction containing all four 2′F-araNTPs. For comparison, dropout experiments containing dNTPs were run in parallel (FIGS. 11-14).
Phusion DNA polymerase (Ph) was evaluated for fidelity of 2′F-araNTP incorporation using the same dropout assay. All four dropout experiments were conducted with the same DNA template PF21 (FIG. 13), or PF41 (FIG. 14).

DV DNA polymerase = biological target: T1, DV DNA polymerase (Pyrococcus sp., UniProt Q51334, D141A/DEL493-1029/E143A); test: Dropout assay, fidelity of incorporation by DV; format: biochemical, Pyrococcus species GB-D; conditions: 30 min reaction time, 25 μM triphosphates, 55° C., template A: PF41, G: PF43, T: PF21, C: PF23
T1 construct: purchased New England Biolabs; host or cells: E. coli
Method: (§2) FIG. 11A illustrates the fidelity of 2′F-araATP incorporation on a DNA template PF41 by DV and 9N DNA polymerases. Reaction conditions: 0.8 unit DV and 9N, 25 μM triphosphates at 55° C. in 30 μL reaction volume; incubation time: 30 min. Group 1 & 5: dNTPs; 2 & 6: dropout of dATP; 3 & 7: 2′F-araNTPs, 4 & 8: dropout of 2′F-araATP; 27mer control DNA is PF39.
(§3) FIG. 11B illustrates the fidelity of 2′F-araGTP incorporation on DNA template PF43 by DV and 9N DNA polymerases. Reaction conditions: primer/template (1:1 molar ratio): 100 nM; 0.4 μL (0.8 unit) DV, 9N, 25 μM triphosphate concentration at 55° C. in 30 μL reaction volume. Reaction time for dNTPs (group 1, 5) was 30 min and others were shown above. Group 1 & 5: dNTPs; 2 & 6: drop out dGTP (i.e. dTTP, dCTP and dATP), 3 & 7: 2TF-araNTPs, 4 & 8: drop out 2′F-araGTP; lane P is the template PF41 as the full-length product control; PF39 is a 27-nt DNA control. All samples were analyzed by 12% denaturing PAGE.
(§4) FIG. 12A illustrates the fidelity of 2′F-araTTP incorporation by DV and 9N DNA polymerases on a DNA template PF21. Reaction conditions: 100 nM primer/template (1:1 molar ratio); 0.4 μL (0.8 unit) DV or 9N, 25 μM triphosphate concentration at 55° C. in 30 μL reaction volume. Reaction time for dNTPs (group 1, 5) was 30 min and others were shown above. Groups 1 & 5: dNTPs; 2 & 6: drop out dTTP; 3 & 7: 2′F-araNTPs; 4 & 8: drop out 2′F-araTTPs. in B: group 1 & 5: dNTPs; 2 & 6: drop out dCTP; 3 & 7: 2′F-araNTPs; 4 & 8: drop out 2′F-araCTPs; PF39 is a 27-nt DNA control. All samples were analyzed by 12% denaturing PAGE.
as §4, with “12B” for “12A”, “fidelity study” for “fidelity”, “2′F-araCTP” for “2′F-araTTP”, “PF23.” for “PF21.”, “(groups” for “(group”, “Groups” for “Groups 1 & 5: dNTPs; 2 & 6: drop out dTTP; 3 & 7: 2′F-araNTPs; 4 & 8: drop out 2′F-araTTPs. in B: group”
(§5) “Dropout assays” (Ichida et al. (2005) J. Am. Chem. Soc. 127:2802-2803) were conducted to assess the fidelity of 2′F-araNTP incorporation (each of 2′F-araATP, 2′F-araCTP, 2′F-araGTP and 2′F-araTTP) by various DNA polymerases (FIGS. 11-14). For example, the 2′F-araNTP of interest is removed from the pool, and the ensuing synthesis on DNA template (e.g. PF21, PF23, PF41, PF43) assessed in comparison with a control reaction containing all four 2′F-araNTPs. For comparison, dropout experiments containing dNTPs are run in parallel. Full-length DNA and FANA products are obtained when all four dNTPs (group 1 and 5) and 2′F-araNTPs (groups 3 and 7) were available, however, some pausing may occur during synthesis of the arabinose modified oligomers. Apparent fidelity was calculated according to the equation:
as §1
(§6) at 30 min reaction time (sample equation for dNTP values). >99% means that the full-length product was not detectable in our dropout assays.
(§7) “Dropout assays” (Ichida et al. (2005) J. Am. Chem. Soc. 127:2802-2803) were conducted to assess apparent fidelity of 2′F-araNTP incorporation by DV and 9N. In one of these assays, 2′F-araATP was removed from the pool, and the ensuing synthesis assessed in comparison with a control reaction containing all four 2′F-araNTPs. For comparison, dropout experiments containing dNTPs were run in parallel (FIGS. 11-14). Full-length DNA and FANA products were obtained when all four dNTPs (group 1 and 5) and 2′F-araNTPs (groups 3 and 7) were available, although some pausing was evident during synthesis of the arabinose modified oligomers.

9N DNA polymerase = biological target: T2, 9N DNA polymerase (Thermococcus sp., UniProt Q56366, E143D); test: Dropout assay, fidelity of incorporation by 9N; format: biochemical, Thermococcus species (strain 9° N-7); conditions: 30 min reaction time, 25 μM triphosphates, 55° C., template A: PF41, G: PF43, T: PF21, C: PF23
T2 construct: purchased New England Biolabs; host or cells: E. coli
Method: as §2, §3, §4
as §4, with “12B” for “12A”, “fidelity study” for “fidelity”, “2′F-araCTP” for “2′F-araTTP”, “PF23.” for “PF21.”, “(groups” for “(group”, “Groups” for “Groups 1 & 5: dNTPs; 2 & 6: drop out dTTP; 3 & 7: 2′F-araNTPs; 4 & 8: drop out 2′F-araTTPs. in B: group”
as §5, §1, §6, §7

DNA polymerases = test: Primer extension assays, statement for all enzymes studied; format: biochemical; conditions: DNA template PF24; 9N, HIV, MMLV, DV

SMILES	% Apparent Fidelity, dNTP [1] [%]	% Apparent Fidelity, dNTP (DV DNA polymerase) [%]	% Apparent Fidelity, dNTP (9N DNA polymerase) [%]	order of incorporation efficiency (DNA polymerases)	% Apparent Fidelity, 2′F-araNTP [1]	% Apparent Fidelity, 2′F-araNTP (DV DNA polymerase)	% Apparent Fidelity, 2′F-araNTP (9N DNA polymerase)
Cc1cn([C@H]2C[C@H](O)[C@@H](COP(=O)(O)OP(=O)(O)OP(=O)(O)O)O2)c(=O)[nH]c1=O [dTTP, reference compound]	>99	19	32				
Nc1ccn([C@H]2C[C@H](O)[C@@H](COP(=O)(O)OP(=O)(O)OP(=O)(O)O)O2)c(=O)n1 [dCTP]	>99	3	82	dCTP=2′F-rCTP>2′F-araCTP >>rCTP			
Nc1ccn([C@@H]2O[C@H](COP(=O)(O)OP(=O)(O)OP(=O)(O)O)[C@@H](O)[C@@H]2F)c(=O)n1 [2′F-araCTP, 1-(2-deoxy-2-fluoro-β-D-arabinofuranosyl)cytosine 5′-triphosphate]				dCTP=2′F-rCTP>2′F-araCTP >>rCTP	C: >99%	C: 50%	C: 43%
Cc1cn([C@@H]2O[C@H](COP(=O)(O)OP(=O)(O)OP(=O)(O)O)[C@@H](O)[C@@H]2F)c(=O)[nH]c1=O [2′F-araTTP, 1-(2-deoxy-2-fluoro-β-D-arabino-furanosyl)thymine 5′-triphosphate]					T: >99%	T: 3%	T: 76%
Nc1ccn([C@@H]2O[C@H](COP(=O)(O)OP(=O)(O)OP(=O)(O)O)[C@@H](O)[C@H]2F)c(=O)n1 [2′F-rCTP, 1-(2-deoxy-2-fluoro-β-D-ribofuranosyl) cytosine 5′-triphosphate, reference compound]				dCTP=2′F-rCTP>2′F-araCTP >>rCTP			
